Source: ChEMBL document CHEMBL1201862, “PubChem BioAssay data set” (2004)
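How tested: cells in 96-well plates exposed to compound for 48 hours at five concentrations. The concentration for 50% growth inhibition is given as GI50.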 Activity calls are given as the source filed them. No stated cut-off is given here; in the data, active = GI50 up to about 1.1 µM and inactive = higher.

Experiments:
Test in all cases: NCI anticancer screen, dose series, 48 h
786-0 = system: 786-0
A549 = system: A549
BT-549 = system: BT-549
CAKI-1 = system: CAKI-1
COLO 205 = system: COLO 205
DU-145 = system: DU-145
HCT-116 = system: HCT-116
HCT-15 = system: HCT-15
KM12 = system: KM12
M14 = system: M14
MOLT-4 = system: MOLT-4
OVCAR-5 = system: OVCAR-5
OVCAR-8 = system: OVCAR-8
SK-OV-3 = system: SK-OV-3
TK-10 = system: TK-10
U-251 = system: U-251
UO-31 = system: UO-31
A498 = system: A498
Hs-578T = system: Hs-578T
MDA-MB-435 = system: MDA-MB-435

Row | Compound | GI50 (786-0) | GI50 (A549) | GI50 (BT-549) | GI50 (CAKI-1) | GI50 (COLO 205) | GI50 (DU-145) | GI50 (HCT-116) | GI50 (HCT-15) | GI50 (KM12) | GI50 (M14) | GI50 (MOLT-4) | GI50 (OVCAR-5) | GI50 (OVCAR-8) | GI50 (SK-OV-3) | GI50 (TK-10) | GI50 (U-251) | GI50 (UO-31) | GI50 (A498) | GI50 (Hs-578T) | GI50 (MDA-MB-435)
1 | COc1ccc2nc3n(c2c1)C(=O)c1ccccc1-3 | > 100 µM (inactive) | > 100 µM (inactive) | > 10 µM (inactive) | > 100 µM (inactive) | > 100 µM (inactive) | > 100 µM (inactive) | > 100 µM (inactive) | > 100 µM | > 100 µM (inactive) | > 100 µM (inactive) | > 100 µM (inactive) | > 100 µM (inactive) | > 100 µM (inactive) | 15.1 µM (inactive) | > 100 µM (inactive) | > 100 µM (inactive) | > 100 µM (inactive) |  |  | 
2 | O=C(O)c1cc(-c2ccc3cc4c(cc3c2)OCO4)nc2ccccc12 | 30.7 µM (inactive) | 21.1 µM (inactive) | 22.8 µM (inactive) |  | 42.4 µM (inactive) | 63.4 µM (inactive) | 19.5 µM (inactive) | 12.3 µM | > 100 µM (inactive) | 28 µM (inactive) | 28.8 µM (inactive) | 28.5 µM (inactive) | 37.1 µM (inactive) | 44.7 µM (inactive) | 18.2 µM (inactive) | 19.7 µM (inactive) | 11.5 µM (inactive) | 23.9 µM (inactive) | 49.2 µM (inactive) | 85.3 µM (inactive)
3 | CCCS(=O)(=O)O |  | > 100 µM (inactive) | > 100 µM (inactive) | > 100 µM (inactive) | > 100 µM (inactive) | > 100 µM (inactive) |  | > 100 µM | > 100 µM (inactive) | > 100 µM (inactive) | > 100 µM (inactive) | > 100 µM (inactive) | > 100 µM (inactive) | > 100 µM (inactive) | > 100 µM (inactive) | > 100 µM (inactive) | > 100 µM (inactive) | > 100 µM (inactive) | > 100 µM (inactive) | > 100 µM (inactive)
4 | CC1C(c2ccc3c(c2)OCO3)c2cc3c(cc2OC1N1CCCC1)OCO3 (centres undefined) | 45.5 µM (inactive) | 31.3 µM (inactive) |  | 11.6 µM (inactive) | 31.6 µM (inactive) | 34.1 µM (inactive) | 18 µM (inactive) | 30 µM | 37.7 µM (inactive) | 25.5 µM (inactive) | 27.4 µM (inactive) | 61.4 µM (inactive) | 35.8 µM (inactive) |  | 24.9 µM (inactive) |  | 17.2 µM (inactive) |  | 10.6 µM (inactive) | 5.52 µM (inactive)
5 | Cc1nc2ccccc2n1Cc1nnc(N)o1 | > 100 µM (inactive) | 53.3 µM (inactive) | > 100 µM (inactive) |  | > 100 µM (inactive) | > 100 µM (inactive) | > 100 µM (inactive) | > 100 µM | > 100 µM (inactive) | > 100 µM (inactive) | > 100 µM (inactive) | > 100 µM (inactive) | > 100 µM (inactive) | > 100 µM (inactive) | > 100 µM (inactive) | > 100 µM (inactive) | > 100 µM (inactive) | > 100 µM (inactive) | > 100 µM (inactive) | 0.1 µM (active)
6 | COc1ccc(C(CC(=O)c2ccc(O)cc2)C(C(=O)c2ccc(O)cc2)C(c2ccc(OC)cc2)C2C(=O)NC(=S)NC2=O)cc1 (centres undefined) | 20.6 µM (inactive) | 21.9 µM (inactive) | 18.5 µM (inactive) |  | 16 µM (inactive) | 14.9 µM (inactive) | 16.8 µM (inactive) | 21.2 µM | 16.6 µM (inactive) | 20.8 µM (inactive) | 37.7 µM (inactive) | 20.7 µM (inactive) | 24.8 µM (inactive) |  | 29.3 µM (inactive) | 24.5 µM (inactive) | 17.5 µM (inactive) | 38.9 µM (inactive) | 26.7 µM (inactive) | 25.5 µM (inactive)
7 | CC1(C)N=C(Oc2ccccc2)n2nccc2N1 | 59.4 µM (inactive) | > 100 µM (inactive) |  | > 100 µM (inactive) | 87.1 µM (inactive) |  | 51.9 µM (inactive) | > 100 µM | > 100 µM (inactive) | 73.1 µM (inactive) | > 100 µM (inactive) | > 100 µM (inactive) |  | > 100 µM (inactive) | > 100 µM (inactive) | > 100 µM (inactive) | > 100 µM (inactive) | > 100 µM (inactive) |  | 
8 | COC1OC(CS(=O)(=O)O)C(O)C(O)C1O (centres undefined) |  |  | > 100 µM (inactive) | > 100 µM (inactive) | > 100 µM (inactive) | > 100 µM (inactive) | > 100 µM (inactive) | > 100 µM | > 100 µM (inactive) | > 100 µM (inactive) | > 100 µM (inactive) | > 100 µM (inactive) | > 100 µM (inactive) | > 100 µM (inactive) | > 100 µM (inactive) | > 100 µM (inactive) | > 100 µM (inactive) | > 100 µM (inactive) | > 100 µM (inactive) | > 100 µM (inactive)
9 | CC1C(=O)N(c2ccccc2)NC12CCCc1ccccc12 (centres undefined) |  | > 100 µM (inactive) | > 100 µM (inactive) | > 100 µM (inactive) | > 100 µM (inactive) | > 100 µM (inactive) | > 100 µM (inactive) | > 100 µM | > 100 µM (inactive) | > 100 µM (inactive) | > 100 µM (inactive) | > 100 µM (inactive) | > 100 µM (inactive) | > 100 µM (inactive) | > 100 µM (inactive) | > 100 µM (inactive) | > 100 µM (inactive) | > 100 µM (inactive) | > 100 µM (inactive) | > 100 µM (inactive)
10 | C=CC(=O)NC(O)(C(=O)OCC)C(F)(F)F (centres undefined) |  | > 100 µM (inactive) | > 100 µM (inactive) | > 100 µM (inactive) | > 100 µM (inactive) | > 100 µM (inactive) | > 100 µM (inactive) | > 100 µM | > 100 µM (inactive) | > 100 µM (inactive) | > 100 µM (inactive) | > 100 µM (inactive) | > 100 µM (inactive) | > 100 µM (inactive) | > 100 µM (inactive) | > 100 µM (inactive) | > 100 µM (inactive) |  | > 100 µM (inactive) | > 100 µM (inactive)
11 | O=C1CC(CC(OCc2ccccc2)C(COCc2ccccc2)OCc2ccccc2)CC(=O)N1 (centres undefined) | 32.4 µM (inactive) | 27.4 µM (inactive) | 13 µM (inactive) | 19.7 µM (inactive) | 19.2 µM (inactive) | 69.3 µM (inactive) | 23.6 µM (inactive) | 31.9 µM | 37.9 µM (inactive) | 39.4 µM (inactive) | 24.3 µM (inactive) | 44.2 µM (inactive) | 31.9 µM (inactive) |  |  | 32.5 µM (inactive) | 16 µM (inactive) | 30.3 µM (inactive) | 44.2 µM (inactive) | 29.6 µM (inactive)
12 | COc1ccc(Cc2nccc3cc(OC)c(OC)cc23)cc1 | > 100 µM (inactive) | > 100 µM (inactive) |  | 33 µM (inactive) | > 100 µM (inactive) |  | 57.4 µM (inactive) | 57.3 µM | 81.5 µM (inactive) | > 100 µM (inactive) | 39.4 µM (inactive) | 40.4 µM (inactive) | 91.8 µM (inactive) | > 100 µM (inactive) | > 100 µM (inactive) | > 100 µM (inactive) | 16.9 µM (inactive) | 42.2 µM (inactive) |  | 
13 | CCCCC1(N=[N+]=[N-])C(=O)c2cccc3c2N(CCC3)C1=O (centres undefined) | > 100 µM (inactive) | > 100 µM (inactive) | > 100 µM (inactive) | > 100 µM (inactive) | > 100 µM (inactive) | > 100 µM (inactive) | > 100 µM (inactive) | > 100 µM | > 100 µM (inactive) | > 100 µM (inactive) | > 100 µM (inactive) | > 100 µM (inactive) | > 100 µM (inactive) | > 100 µM (inactive) | > 100 µM (inactive) | > 100 µM (inactive) |  | > 100 µM (inactive) | > 100 µM (inactive) | > 100 µM (inactive)
14 | COc1cc([C@@H]2c3cc4c(cc3[C@@H](c3c(O)cc(O)c5c3O[C@H](c3ccc(O)c(O)c3)[C@@H](O)C5)[C@H]3COC(=O)[C@H]23)OCO4)cc(OC)c1O | > 100 µM (inactive) | > 100 µM (inactive) | > 100 µM (inactive) | > 100 µM (inactive) | > 100 µM (inactive) | > 100 µM (inactive) | 72.8 µM (inactive) | > 100 µM | > 100 µM (inactive) | > 100 µM (inactive) | 44 µM (inactive) | > 100 µM (inactive) | > 100 µM (inactive) | > 100 µM (inactive) | > 100 µM (inactive) | > 100 µM (inactive) |  | > 100 µM (inactive) | > 100 µM (inactive) | > 100 µM (inactive)
15 | C=C1C(=O)C23C(O)CC4C(C)(C)CCC(O)C4(C)C2CC(OC(C)=O)C1[C@H]3O (some centres undefined) | 2.4 µM (inactive) | 4.06 µM (inactive) |  | 2.37 µM (inactive) | 1.98 µM (inactive) | > 10 µM (inactive) | 2 µM (inactive) | 2.06 µM | 15.8 µM (inactive) | 2.82 µM (inactive) | 1.28 µM (inactive) | 9.75 µM (inactive) | 1.22 µM (inactive) | 17.3 µM (inactive) | 2.22 µM (inactive) | 8.81 µM (inactive) | 15.3 µM (inactive) | 15.8 µM (inactive) | 24 µM (inactive) | 7.96 µM (inactive)
16 | CCCCCCCCCCCCCCCC[N+](C)(C)Cc1ccc(C[N+](C)(C)CCCCCCCCCCCCCCCC)cc1 | 2.5 µM (inactive) | 2.09 µM (inactive) |  | 10.1 µM (inactive) | 2.7 µM (inactive) |  | 2.59 µM (inactive) | 3.66 µM | 2.56 µM (inactive) | 2.89 µM (inactive) | 1.78 µM (inactive) | 1.91 µM (inactive) | 2.04 µM (inactive) | 2.62 µM (inactive) | 17.8 µM (inactive) | 1.96 µM (inactive) | 25.8 µM (inactive) | > 100 µM (inactive) |  | 
